In US9458499B2, “Nucleic acid binding dyes and uses therefor” (PROMEGA CORPORATION, priority 2009, dated 2016):
Where a name gives a salt, the structure may show the parent alone.

Key:
Format in all cases: physicochemical
dsDNA = test: Quantum yield, absorbance and emission of dyes with dsDNA; conditions: for Em λ (ds DNA): Example 1; for absorbance λEx dsDNA / emission λmaxEM dsDNA: Table 1
ss DNA = test: Relative brightness of stains with ss DNA (protocol of Nygren et al.)
Experimental: (§1) The relative brightness of certain compounds (Table 2) was determined based on the protocol in Nygren, J., Svanvik, N., Kubista, M. (1998) Biopolymers, Vol. 46, 39-51, which is incorporated by reference herein.

ds DNA = test: Relative brightness of stains with ds DNA (protocol of Nygren et al.)
Experimental: as §1

Structure (SMILES) | Em λ (ds DNA) (dsDNA) [nm] | quantum yield (Φ) dsDNA (dsDNA) | absorbance λEx dsDNA (dsDNA) [nm] | emission λmaxEM dsDNA (dsDNA) | Relative Brightness ss DNA (ss DNA) | Relative Brightness ds DNA (ds DNA)
CN(C)CCCN(CCCN(C)C)C1=C/C(=C\c2sc3cccc4c3[n+]2CCC4)c2ccccc2N1c1ccccc1 [PBI 3646, 1-((2-(Bis(3-(dimethylamino)propyl)amino)-1-phenylquinolin-4(1H)-ylidene)methyl)-7,8-dihydro-6H-thiazolo[5,4,3-ij]quinolin-9-ium] | 531 | 0.43 | 504 | 531 |  | 
CCCN(CCCN(C)C)C1=C/C(=C\c2sc3cccc4c3[n+]2CCC4)c2ccccc2N1c1ccccc1 [PBI 3654, 1-((2-((3-(Dimethylamino)propyl)(propyl)amino)-1-phenylquinolin-4(1H)-ylidene)methyl)-7,8-dihydro-6H-thiazolo[5,4,3-ij]quinolin-9-ium] | 529 | 0.70 | 498 | 529 |  | 
CN(C)CCN(Cc1ccccc1)c1cc(/C=C2/Sc3cccc4c3N2CCC4)c2ccccc2[n+]1-c1ccccc1 [PBI 3666, 2-(benzyl(2-(dimethylamino)ethyl)amino)-4-((5,6-dihydrothiazolo[5,4,3-ij]quinolin-2(4H)-ylidene)methyl)-1-phenylquinolinium trifluoroacetate] |  | 0.34 | 494 | 535 |  | 
CCCCN(CCCN(C)C)c1cc(/C=C2/Sc3cccc4c3N2CCC4)c2ccccc2[n+]1-c1ccccc1 [PBI 3667, 2-(butyl(3-(dimethylamino)propyl)amino)-4-((5,6-dihydrothiazolo[5,4,3-ij]quinolin-2(4H)-ylidene)methyl)-1-phenylquinolinium trifluoroacetate] |  | 0.68 | 494 | 529 |  | 
CN(C)CCCN(CCCN(C)C)C1=C/C(=C\c2sc3cccc4c3[n+]2CCC4)c2ccccc2N1CCCc1ccccc1 [PBI 3675, 1-((2-(bis(3-(dimethylamino)propyl)amino)-1-(3-phenylpropyl)quinolin-4(1H)-ylidene)methyl)-7,8-dihydro-6H-thiazolo[5,4,3-ij]quinolin-9-ium] | 535 | 0.31 | 503 | 535 |  | 
CCN(CC)c1cc(/C=C2\Sc3cccc4c3N2CCC4)c2ccccc2[n+]1-c1ccccc1 [PBI 3676, 2-(diethylamino)-4-((5,6-dihydrothiazolo[5,4,3-ij]quinolin-2(4H)-ylidene)methyl)-1-phenylquinolinium trifluoroacetate] |  | 0.48 | 494 | 527 |  | 
CCCN(CCCN(C)C)c1cc(/C=C2\Sc3cccc4c3N2CCC4)c2ccccc2[n+]1Cc1ccccc1 [PBI 3677, 1-benzyl-4-((5,6-dihydrothiazolo[5,4,3-ij]quinolin-2(4H)-ylidene)methyl)-2-((3-(dimethylamino)propyl)(propyl)amino)quinolinium trifluoroacetate] |  | 0.72 | 494 | 533 |  | 
CCCN(CCCN(C)C)c1cc(/C=C2\Sc3cccc4c3N2CCC4)c2ccccc2[n+]1C [PBI 3678, 1-methyl-4-((5,6-dihydrothiazolo[5,4,3-ij]quinolin-2(4H)-ylidene)methyl)-2-((3-(dimethylamino)propyl)(propyl)amino)quinolinium trifluoroacetate] |  | 0.68 | 494 | 529 |  | 
CCCN(CCCN(C)C)c1cc(/C=C2/Sc3cccc4c3N2CCC4)c2ccccc2[n+]1CCCc1ccccc1 [PBI 3679, 4-((5,6-Dihydrothiazolo[5,4,3-ij]quinolin-2(4H)-ylidene)methyl)-2-((3-(dimethylamino)propyl)(propyl)amino)-1-(3-phenylpropyl)quinolinium] | 533 | 0.34 | 499 | 533 |  | 
COc1ccc2c(/C=C3\Sc4cccc5c4N3CCC5)cc(N(CCC[N+](C)(C)C)CCC[N+](C)(C)C)[n+](Cc3ccccc3)c2c1 [PBI 4050, 1-Benzyl-2-(bis(3-(trimethylammonio)propyl)amino)-4-((5,6-dihydrothiazolo[5,4,3-ij]quinolin-2(4H)-ylidene)methyl)-7-methoxyquinolinium] |  |  |  |  | 1.23 | 0.63
COc1ccc2c(/C=C3\Sc4cccc5c4N3CCC5)cc(N(C)C)[n+](Cc3ccccc3)c2c1 [PBI 4051, 1-benzyl-4-((5,6-dihydrothiazolo[5,4,3-ij]quinolin-2(4H)-ylidene)methyl)-2-(dimethylamino)-7-methoxyquinolinium] |  |  |  |  | 1.10 | 0.67
COc1ccc2c(/C=C3\Sc4cccc5c4N3CCC5)cc(N(CCC[N+](C)(C)C)CCC[N+](C)(C)C)[n+](C)c2c1 [PBI 4052, 2-(bis(3-(trimethylammonio)propyl)amino)-4-((5,6-dihydrothiazolo[5,4,3-ij]quinolin-2(4H)-ylidene)methyl)-7-methoxy-1-methylquinolinium] |  |  |  |  | 2.41 | 0.74
CCCN(CCC[N+](C)(C)C)c1cc(/C=C2\Sc3cccc4c3N2CCC4)c2ccc(OC)cc2[n+]1-c1ccccc1 [PBI 4054, 4-((5,6-dihydrothiazolo[5,4,3-ij]quinolin-2(4H)-ylidene)methyl)-7-methoxy-1-phenyl-2-(propyl(3-(trimethylammonio)propyl)amino)quinolinium] |  |  |  |  | 3.10 | 1.19
CCCN(CCCN(C)C)c1cc(/C=C2/Sc3ccccc3N2C)c2ccccc2[n+]1-c1ccccc1 [SYBR Green 1, reference compound] |  |  |  |  |  | 1
CN(C)CCN(C)C1=C/C(=C\c2sc3cccc4c3[n+]2CCC4)c2ccccc2N1c1ccccc1 [compound 3568, 1-((2-((2-(Dimethylamino)ethyl)(methyl)amino)-1-phenylquinolin-4(1H)-ylidene)methyl)-7,8-dihydro-6H-thiazolo[5,4,3-ij]quinolin-9-ium] | 529 | 0.39 | 466 | 529 |  | 
CN1C=C/C(=C\c2sc3cccc4c3[n+]2CCC4)c2ccccc21 [compound 3632, 1-((1-Methylquinolin-4(1H)-ylidene)methyl)-7,8-dihydro-6H-thiazolo[5,4,3-ij]quinolin-9-ium] | 529 | 0.2 | 504 | 529 |  | 
CCCN(CCC[N+](C)(C)C)c1cc(/C=C2\Sc3cccc4c3N2CCC4)c2ccc(OC)cc2[n+]1C [compound 4053, 4-((5,6-dihydrothiazolo[5,4,3-ij]quinolin-2(4H)-ylidene)methyl)-7-methoxy-1-methyl-2-(propyl(3-(trimethylammonio)propyl)amino)quinolinium] |  |  |  |  | 1.82 | 1.26
